This note sets out measurements from PubChem BioAssay (NCI).

The structures appear in SMILES notation.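 48-hour exposure; five concentrations; linearly interpolated endpoints. TGI marks complete inhibition of growth.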

Among the test systems are CCRF-CEM leukemia; NCI/ADR-RES ovarian; SK-MEL-5 melanoma; PC-3 prostate; HOP-62 NSCLC; SF-539 CNS; HCT-116 colon; A498 renal; NCI-H522 lung; UO-31 renal.
Common to all, as to assay: NCI anticancer screen, dose series, 48 h

Regarding `CCOC(=O)c1c(SCCN2CCCC2)n(-c2ccccc2)c(=S)n(-c2ccccc2)c1=O`, the TGI with CCRF-CEM leukemia was 4.14 µM; in the assay on NCI/ADR-RES ovarian it was above 92 µM; with SK-MEL-5 melanoma, 10 µM; in the assay with PC-3 prostate, 3.14 µM; in the assay with HOP-62 NSCLC, 36.6 µM; in the assay with SF-539 CNS it was 4.86 µM. The TGI in the assay on HCT-116 colon was 8.39 µM; in the assay on A498 renal, 22.5 µM; with NCI-H522 lung, 4.08 µM.
For `Cc1ccc(C(=O)Nc2ccc(CP(=O)(O)O)cc2)cc1NC(=O)c1cccc(NC(=O)Nc2cccc(C(=O)Nc3cc(C(=O)Nc4ccc(CP(=O)(O)O)cc4)ccc3C)c2)c1`, the TGI with UO-31 renal, with CCRF-CEM leukemia, in the assay on NCI/ADR-RES ovarian, in the assay on SK-MEL-5 melanoma, with PC-3 prostate and in the assay on HOP-62 NSCLC was above 100 µM throughout. The TGI in the assay on SF-539 CNS, in the assay with HCT-116 colon, with A498 renal and in the assay on NCI-H522 lung was above 100 µM each time.
On to `Cc1cc(C)c2c(n1)S(=O)(=O)N(CCCN1CCN(c3cccc(C(F)(F)F)c3)CC1)/C(=C(\O)c1ccc(Cl)cc1)C2=O`, for which the TGI in the assay with UO-31 renal is 10.8 µM; in the assay with CCRF-CEM leukemia, above 100 µM; in the assay with NCI/ADR-RES ovarian it was 16.4 µM; with SK-MEL-5 melanoma, 6.22 µM; with PC-3 prostate it was 13.6 µM; in the assay with HOP-62 NSCLC, 37.1 µM. Further, the TGI worked out at 17.1 µM with SF-539 CNS, 11.9 µM in the assay on HCT-116 colon, 16.9 µM in the assay with A498 renal and 14.8 µM in the assay with NCI-H522 lung.
For `N#Cc1c2c(c(Nc3ccc(F)cc3)n3c1nc1ccccc13)CCC2`, the TGI in the assay on UO-31 renal was 7.75 µM; in the assay on CCRF-CEM leukemia it was 4.52 µM; in the assay on NCI/ADR-RES ovarian, 25 µM; in the assay on SK-MEL-5 melanoma, 8.52 µM; in the assay on PC-3 prostate, 19 µM; with HOP-62 NSCLC it was 11.2 µM. The TGI in the assay on SF-539 CNS was found to be 9.56 µM; in the assay with HCT-116 colon, 3.45 µM; in the assay on A498 renal, 28.8 µM; in the assay with NCI-H522 lung, 4.58 µM.
In the case of `O=C1N[C@@H]2c3c(csc3Br)C(=O)[C@@H]2O1`, the TGI in the assay with UO-31 renal is 58.4 µM; in the assay on CCRF-CEM leukemia it was 40.1 µM; in the assay on NCI/ADR-RES ovarian, above 100 µM; with SK-MEL-5 melanoma, above 100 µM; in the assay on PC-3 prostate, above 100 µM; in the assay on HOP-62 NSCLC, above 100 µM. For the same compound, the TGI with SF-539 CNS was above 100 µM; in the assay with HCT-116 colon, above 100 µM; in the assay with A498 renal, above 100 µM; with NCI-H522 lung, 68.3 µM.
Regarding `Cc1cccc(C[C@@]2(SCc3ccccc3)C(C)(C)[C@@H]3CC[C@@]2(C)C3)n1`, the TGI turned out to be 37.2 µM in the assay with UO-31 renal; 27.6 µM in the assay on CCRF-CEM leukemia; 30.2 µM with NCI/ADR-RES ovarian; 29.4 µM in the assay on SK-MEL-5 melanoma; 35.7 µM with PC-3 prostate; 60.2 µM with HOP-62 NSCLC. Besides, the TGI was determined as 55.1 µM with SF-539 CNS, 31.9 µM in the assay on HCT-116 colon, 28.6 µM with A498 renal and 29.1 µM in the assay on NCI-H522 lung.
In the case of `CC1=CC=CC(C)(C)CC1(O[Si](C)(C)C)C(F)(F)F` (stereo not drawn), the TGI in the assay with UO-31 renal, in the assay with CCRF-CEM leukemia, in the assay with NCI/ADR-RES ovarian, in the assay on SK-MEL-5 melanoma, with PC-3 prostate and in the assay with HOP-62 NSCLC was above 100 µM in each case. For the same compound, the TGI with SF-539 CNS, in the assay with HCT-116 colon, in the assay with A498 renal and in the assay with NCI-H522 lung was above 100 µM throughout.
As for `CCOP(=O)(OCC)/C(F)=C/c1ccccc1`, the TGI in the assay on UO-31 renal, in the assay on CCRF-CEM leukemia, in the assay with NCI/ADR-RES ovarian, in the assay on SK-MEL-5 melanoma, in the assay with PC-3 prostate and in the assay with HOP-62 NSCLC was above 100 µM each time. For the same compound, the TGI with SF-539 CNS, in the assay on HCT-116 colon, in the assay with A498 renal and in the assay with NCI-H522 lung was above 100 µM each time.
Consider `CC1=CC(=O)N(n2c(C)n[nH]c2=O)C1=O`, for which the TGI in the assay with UO-31 renal, in the assay with CCRF-CEM leukemia, in the assay on NCI/ADR-RES ovarian, in the assay on SK-MEL-5 melanoma, in the assay with PC-3 prostate and with SF-539 CNS was above 100 µM in each case. Moreover, the TGI in the assay with HCT-116 colon, with A498 renal and in the assay with NCI-H522 lung was above 100 µM in each case.
For `O=C(O[C@H](/C=C/c1ccccc1)P1(=O)N(Cc2ccccc2)[C@@H]2CCCC[C@H]2N1Cc1ccccc1)c1ccccc1`, the TGI is above 100 µM in the assay with UO-31 renal; above 100 µM with CCRF-CEM leukemia; 43.1 µM with NCI/ADR-RES ovarian; 3.88 µM with SK-MEL-5 melanoma; above 100 µM in the assay on PC-3 prostate; above 100 µM in the assay on HOP-62 NSCLC. Besides, the TGI with SF-539 CNS is 22.2 µM; with HCT-116 colon, 12.1 µM; in the assay on A498 renal it was above 100 µM; in the assay with NCI-H522 lung, above 100 µM.
With `COc1ccc2c(c1)C(=O)c1ccccc1C2`, the TGI in the assay on UO-31 renal, in the assay on CCRF-CEM leukemia, with NCI/ADR-RES ovarian, in the assay with SK-MEL-5 melanoma, in the assay with PC-3 prostate and in the assay on HOP-62 NSCLC was above 100 µM throughout. The TGI in the assay with SF-539 CNS, in the assay with HCT-116 colon, in the assay with A498 renal and with NCI-H522 lung was above 100 µM throughout.
Take `O=C(O)c1ccc(NS(=O)(=O)Cc2ccccc2)cc1`: the TGI in the assay with UO-31 renal, with CCRF-CEM leukemia, in the assay on NCI/ADR-RES ovarian, with SK-MEL-5 melanoma, with PC-3 prostate and with HOP-62 NSCLC was above 100 µM in each case. The TGI in the assay with SF-539 CNS, with HCT-116 colon, with A498 renal and in the assay with NCI-H522 lung was above 100 µM in each case.
For the compound `C(=Nc1ccc(-c2nc3ccccc3s2)cc1)c1ccco1`, the TGI with UO-31 renal, in the assay on CCRF-CEM leukemia, with NCI/ADR-RES ovarian, in the assay with SK-MEL-5 melanoma, in the assay with PC-3 prostate and in the assay on HOP-62 NSCLC was above 100 µM each time. Also, the TGI in the assay on SF-539 CNS is above 100 µM; in the assay with HCT-116 colon it was above 100 µM; with A498 renal, 99.3 µM; in the assay on NCI-H522 lung, above 100 µM.
Turning to `CN(O)C(=O)Cc1ccc(OCc2cccc(Cl)c2)cc1`, the TGI in the assay on UO-31 renal, with CCRF-CEM leukemia, with NCI/ADR-RES ovarian, in the assay with SK-MEL-5 melanoma, with PC-3 prostate and in the assay on HOP-62 NSCLC was above 100 µM each time. Also, the TGI with SF-539 CNS is above 100 µM; in the assay on HCT-116 colon it was above 100 µM; in the assay with A498 renal it was 94.3 µM; in the assay with NCI-H522 lung it was above 100 µM.
